Source: patent publication US20200055817A1 (AbbVie Deutschland GmbH & Co. KG, priority 2016, published 2020)
pEC50: −log10 of the molar value. Where a name gives a salt, the structure may show the parent alone.

Assays:
Assay type in all cases: cell-based
S1P4 = target: T1, S1P4 (Homo sapiens, UniProt O95977); assay: Aequorin assay, agonist potency, S1P4; conditions: agonist mode, aequorin luminescence
T1 sequence (O95977 1-384): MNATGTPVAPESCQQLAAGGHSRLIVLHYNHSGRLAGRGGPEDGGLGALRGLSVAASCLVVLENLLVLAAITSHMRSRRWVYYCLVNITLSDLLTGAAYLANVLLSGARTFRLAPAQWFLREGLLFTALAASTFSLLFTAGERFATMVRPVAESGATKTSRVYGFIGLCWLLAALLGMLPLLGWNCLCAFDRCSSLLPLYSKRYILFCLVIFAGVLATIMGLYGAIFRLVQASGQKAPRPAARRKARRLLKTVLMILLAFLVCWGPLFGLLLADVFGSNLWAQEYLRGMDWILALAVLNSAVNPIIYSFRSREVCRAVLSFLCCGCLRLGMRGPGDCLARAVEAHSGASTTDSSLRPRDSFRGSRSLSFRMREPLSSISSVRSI
How it was run: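 Cells loaded overnight at RT with 5 μM coelenterazine h in DMEM/HAM's F12 with HEPES plus 0.1% fatty acid-free BSA, then injected onto compounds; agonist-induced calcium luminescence recorded for 90 s and integrated. Signal normalised to digitonin (100 μM) or ATP (20 μM) wells, S1P as reference agonist; sigmoidal nonlinear regression.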

[1] = target: T2, human EDG1 (S1PR1) receptor (Homo sapiens, UniProt P21453); assay: Aequorin assay, agonist potency, CHO-A21-Edg1#17 cells; conditions: agonist mode, aequorin luminescence; read-out: S1P1 EC50
T2 construct: expressed in transfected cells; host or cells: CHO-A21-Edg1#17 (CHO clone co-expressing mitochondrial aequorin and chimaeric Gaqi5)
How it was run: (§1)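 CHO cells coexpressing receptor, mitochondrial aequorin and Gαqi5 (S1P3 pool: GNA16) were loaded overnight at RT with 5 μM coelenterazine h in 0.1% fatty-acid-free BSA buffer. Cells were injected onto compound, luminescence recorded 90 s and integrated, normalised to digitonin or 20 μM ATP; sigmoidal fit.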

[2] = target: T3, human EDG3 (S1PR3) receptor (Homo sapiens, UniProt Q99500); assay: Aequorin assay, agonist potency, CHO-A2-S1P3 Mix cells; conditions: agonist mode, aequorin luminescence
T3 construct: expressed in transfected cells; host or cells: CHO-A2-S1P3 Mix (CHO cell pool co-expressing mitochondrial aequorin and GNA16)
Method: Agonistic activity was measured as described below.
Cell clone CHO-A21-Edg1#17 carries the transgenes human EDG1 (S1PR1) receptor (Accession number NP_001391.2), mitochondrially targeted Aequorin (active part corresponds to accession number 1SL8_A) and chimaeric Gaqi5=Gaq modified with the 5 C-terminal amino-acids replaced with those of the Gai protein (DCGLF). CHO-A2-S1P3 Mix is a cell pool ectopically expressing human EDG3 (S1PR3) receptor (Accession number NP_005217.2) mitochondrially targeted Aequorin (active part has a sequence similar to accession number AY601106.1) and GNA16 (Accession number NP_002059.3). Cell clone CHO-A21-EDG8#12 carries the transgenes human EDG8 (S1PR5) receptor (Acession number NP_110387.1), mitochondrially expressed Aequorin (active part corresponds to accession number 1SL8_A) and chimaeric Gaqi5 (Gaq modified to present the 5 last amino-acids of the Gai protein “DCGLF”; see above). Cells are grown to mid-log phase in culture medium (HAM's F12, 10% FBS, 100 IU/mL penicillin, 100 μg/mL streptomycin, 250 μg/mL Zeocin, 400 μg/mL G418). 18 hours prior to frozen cells preparation, the medium is changed to remove the antibiotics.
18 hours prior to the test, vials of frozen cells are quickly thawed in a 37° C. water bath, cells are recovered by centrifugation and resuspended in assay buffer (DMEM/HAM's F12 with HEPES, without phenol red+0.1% fatty acid-free BSA). Cells are gently agitated in suspension overnight at RT in presence of 5 μM of Coelenterazine h (Molecular Probes). On the day of the test, cells are diluted to their final working concentrations in assay buffer and agitated in suspension for 1 h at RT. Cells are then placed in the luminescence reader (Hamamatsu Functional Drug Screening System 6000, FDSS6000). During cells incubation, compounds are prepared in 100% DMSO, and subsequently diluted in assay buffer. Compounds are then dispensed in the assay plate (black, clear-bottom, 384-well plate). After binding of agonists to the human S1P receptor the intracellular calcium concentration increases and binding of calcium to the Aequorin/Coelenterazine complex leads to an oxidation reaction of coelenterazine, which results in the production of Aequorin, coelenteramide, CO2 and light (Dmax 469 nm). The luminescent response is dependent on the agonist concentration. For agonist testing, 30 μL of cell suspension are injected on 30 μL of test compound or reference agonist in the assay plate. The resulting emission of light is recorded for 90 seconds using the FDSS6000. Dose response curves with the reference compounds are performed before testing the compounds. S1P is the reference agonist and JTE-013 the reference antagonist for S1P2.
Luminescence data are integrated over the reading interval for agonist and antagonist modes. To standardize the emission of recorded light (determination of the “100% signal”) across plates and across different experiments, some of the wells contain 100 μM digitonin or a saturating concentration of ATP (20 μM). Plates also contain the reference agonist at a concentration equivalent to the EC80 obtained during the test validation and the EC100. Dose-response data from test compounds were analyzed with XLfit (IDBS) software using nonlinear regression applied to a sigmoidal dose-response model and the following equation: […]

[3] = target: T4, human EDG8 (S1PR5) receptor (Homo sapiens, UniProt Q9H228); assay: Aequorin assay, agonist potency, CHO-A21-EDG8#12 cells; conditions: agonist mode, aequorin luminescence; read-out: S1P5 EC50 range #
T4 construct: carries the transgenes human EDG8 (S1PR5) receptor (Acession number NP_110387.1); expressed in transfected cells; host or cells: CHO-A21-EDG8#12 (CHO clone co-expressing mitochondrial aequorin and chimaeric Gaqi5)
How it was run: as §1

T4 sequence (Q9H228 whole entry): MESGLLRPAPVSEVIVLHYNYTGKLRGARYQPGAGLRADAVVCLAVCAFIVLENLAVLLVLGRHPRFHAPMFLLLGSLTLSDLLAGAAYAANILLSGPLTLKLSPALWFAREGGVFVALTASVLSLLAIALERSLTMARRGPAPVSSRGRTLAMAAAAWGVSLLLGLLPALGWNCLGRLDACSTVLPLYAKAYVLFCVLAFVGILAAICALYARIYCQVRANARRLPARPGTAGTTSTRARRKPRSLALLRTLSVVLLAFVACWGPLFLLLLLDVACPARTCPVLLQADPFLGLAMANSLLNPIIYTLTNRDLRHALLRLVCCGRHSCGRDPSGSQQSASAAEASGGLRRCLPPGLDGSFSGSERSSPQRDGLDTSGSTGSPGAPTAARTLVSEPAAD
T2 sequence (P21453 whole entry): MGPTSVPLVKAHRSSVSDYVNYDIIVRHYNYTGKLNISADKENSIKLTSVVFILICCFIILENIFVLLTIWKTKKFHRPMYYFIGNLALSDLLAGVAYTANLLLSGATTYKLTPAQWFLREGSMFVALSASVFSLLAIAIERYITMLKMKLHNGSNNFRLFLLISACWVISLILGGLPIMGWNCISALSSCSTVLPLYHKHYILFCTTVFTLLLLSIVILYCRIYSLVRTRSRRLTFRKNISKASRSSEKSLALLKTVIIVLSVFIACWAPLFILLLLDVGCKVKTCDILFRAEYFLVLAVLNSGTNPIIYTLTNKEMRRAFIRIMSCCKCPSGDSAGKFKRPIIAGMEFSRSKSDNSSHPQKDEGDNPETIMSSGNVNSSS
T3 sequence (Q99500 whole entry): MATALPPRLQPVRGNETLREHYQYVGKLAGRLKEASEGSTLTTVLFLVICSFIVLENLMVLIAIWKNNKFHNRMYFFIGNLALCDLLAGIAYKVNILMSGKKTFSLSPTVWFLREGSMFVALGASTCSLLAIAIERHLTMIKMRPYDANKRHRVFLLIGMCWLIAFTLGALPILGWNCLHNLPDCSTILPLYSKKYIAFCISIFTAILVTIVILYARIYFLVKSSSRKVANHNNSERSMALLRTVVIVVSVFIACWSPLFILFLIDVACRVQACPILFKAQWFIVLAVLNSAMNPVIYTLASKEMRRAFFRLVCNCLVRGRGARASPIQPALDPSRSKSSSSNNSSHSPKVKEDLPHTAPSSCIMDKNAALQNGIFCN

pEC50 (S1P4): > 6.00 | pEC50 [1]: < 6.00 | pEC50 [2]: < 6.00 | pEC50 [3]: ≥ 8.00
SMILES: CCc1cccc(Cl)c1COc1ccc2c(c1)CC1(CCN(CC(=O)O)CC1)C2 [Example 161, 2-(5-((2-chloro-6-ethylbenzyl)oxy)-1,3-dihydrospiro[indene-2,4′-piperidin]-1′-yl)acetic acid hydrochloride]
